From patent US20210275513A1, “SHELLAC MICROCAPSULE FORMULATIONS AND COMPOSITIONS FOR TOPICAL INTESTINAL DELIVERY OF VITAMIN B3” (CONARIS RESEARCH INSTITUTE AG, priority 2016, published 2021)
“And” between values parts separate entries of the source, which are not always exact repeats. Equal entries are not always repeated.

Tests used:
intestinal microbiota = assay: FIM study: microbiota analyses of stool samples (16S rRNA V3-V4 sequencing); assay type: in vivo, human; conditions: for abundance-based (Bray curtis) bacterial communities distance compared with a healthy normal reference group: baseline vs end of FIM study
Source text: For microbiota analyses, stool samples were collected on the first Monday of the study (day 0, baseline sample) and subsequently once weekly on Thursdays (Table 7). Total genomic DNA was extracted from feces collected longitudinally from each subject using MoBio Powersoil DNA Isolation kit (Dianova GmbH, Hamburg, Germany) according to the manufacturer's instructions. Aliquots of extracted DNA were used to amplify the V3-V4 variable region of 16S rRNA using composite primers (319F and 806R), as described by Fadrosh et al. (Microbiome 2:6, 2014). Amplification was performed by Phusion® hot start flex 2X master mix (New England Biolabs, Frankfurt/M., Germany) in a GeneAmp PCR system 9700 (Life Technologies/Applied Biosystems, Darmstadt, Germany) using the following cycling conditions: an initial denaturation of 3 min at 98° C. followed by 30 cycles of denaturation at 98° C. for 10 s, annealing at 55° C. for 30 s and elongation at 72° C. for 30 s, and a final extension step at 72° C. for 10 min. PCR performance was assessed by agarose gel electrophoresis for quality (expected amplicon size) and quantity (band intensity). Quantitative normalization was performed using the SequalPrep kit (Life/Technologies/Invitrogen, Darmstadt, Germany) to pool equal amounts of amplicons per sample. Sequencing was performed by Illumina MiSeq (2×250 sequencing kit; Illumina, San Diego, Calif., USA), which allowed to generate paired end reads with entire overlapping in contigs generation. Sequencing reads were primarily processed for quality control using the software mothur (Schloss et al. 2009, Appl. Environ. Microbiol. 75:7537). Forward and reverse reads (fastq) were assembled to contig sequences and discarded if they had more than 475 bases, any ambiguous base or more than 8 homopolymers. Sequences were aligned against the mothur-curated silva alignment database and screened to have alignment in the amplified specified V3-V4 region only. Chimeric sequences were detected with the Uchime algorithm (Edgar et al. 2011, Bioinformatics 27:2194) and were also removed. […]

[1] = FIM dose escalation study: safety parameters (routine laboratory, blood pressure, body weight); conditions: week 1 hour 71: 30 mg free NA (NA group) or 900 mg free NAM (NAM group) daily; individual subjects
Procedure: (§1) Ten healthy volunteers were included and allocated to 2 groups of 5 subjects each. One group received NA and the other group received NAM.
In this dose escalation study, subjects ingested the test items in the morning from Monday to Thursday of every week, followed by a three-day washout period from Friday to Sunday (Table 7). Before and until 30 min after administration (or until after the second blood sampling on Mondays), subjects fasted with water only. During week 1, the subjects took one daily dose of 30 mg unformulated NA or 900 mg unformulated NAM, respectively, to measure the maximum systemic exposure and peak serum levels according to nutritional tolerable upper intake levels or levels without anticipated side effects (Table 8).
In order to determine the intake of NA and NAM via the usual diet, a nutritional protocol was completed by the subjects from Mondays to Wednesdays. Blood samples were collected on Mondays and Thursdays (Table 7). On Mondays, the first blood sample was collected before ingestion of the capsules (“0 h” samples), and a second blood sample was taken after 2 hours (“2 h”), while subjects were still fasting. On Thursdays, blood samples were taken after administration of the capsules (“72 h”). Blood samples were subjected to routine laboratory analyses at the central laboratory of the University Hospital Schleswig-Holstein in Kiel (Germany). […] Blood pressure was measured on Mondays and Thursdays (Table 7).

[2] = First-in-man (FIM) dose escalation study: NA and NAM serum levels by LC-MS/MS; assay type: in vivo, human
Procedure: as §1
In this dose escalation study, subjects ingested the test items in the morning from Monday to Thursday of every week, followed by a three-day washout period from Friday to Sunday (Table 7). Before and until 30 min after administration (or until after the second blood sampling on Mondays), subjects fasted with water only. During week 1, the subjects took one daily dose of 30 mg unformulated NA or 900 mg unformulated NAM, respectively, to measure the maximum systemic exposure and peak serum levels according to nutritional tolerable upper intake levels or levels without anticipated side effects (Table 8). From week 2 until week 6, NA microcapsules or NAM microcapsules packaged in gelatin capsules (see Example 1) were administered with weekly dose increases (Tables 7 and 8).
Blood samples were collected on Mondays and Thursdays (Table 7). On Mondays, the first blood sample was collected before ingestion of the capsules (“0 h” samples), and a second blood sample was taken after 2 hours (“2 h”), while subjects were still fasting. […] In addition, NA and NAM levels were measured in all blood samples by LC-MS/MS in an external specialised laboratory to determine exposure (see Example 1).

[3] = pH properties of shellac and NAM (dissolution pH, pH value); assay type: physicochemical
[4] = Pilot pharmacokinetic (PK) study with NAM microcapsules: NA and NAM serum levels; assay type: in vivo, human
Procedure: The study was a self-experiment by medical investigators performed at the Department of Internal Medicine 1 of the University Hospital Schleswig-Holstein, Campus Kiel (Kiel, Germany).
In this study, subjects ingested either 900 mg of unformulated NAM (first week) or 900 mg of microencapsulated NAM packaged in gelatin capsules (second week). […] One such “low niacin meal” consisted of 150 g of apple, 150 g of red pepper and 100 g of cucumber. One niacin equivalent is defined as 1 mg of NA(M) or 60 mg of tryptophan.
Height and body weight were recorded before ingestion of the test item.

clinical = conditions: both, human, in vivo, 900 mg, mean
Procedure: The study consisted of four study days, each separated by one week of washout and regeneration. On the calibration day of the study, the subjects ingested 30 mg of unformulated NA (NA group) or 900 mg of unformulated NAM (NAM group) as in the FIM study (see Example 2). Different doses of microencapsulated NA or NAM packaged in gelatin capsules were administered on the other three study days: 30 mg NA or 900 mg NAM, 150 mg NA or 1500 mg NAM, and 300 mg NA or 3000 mg NAM.
After 12 h of fasting overnight (with water only), a fasted blood sample was collected. After ingestion of NA, NAM or the respective capsules, blood samples were collected every hour until 8 hours after ingestion as well as after 10 and 12 hours. During the collection of blood samples, subjects remained fasted (with water ad libitum) except for two light meals with minimal vitamin B3 content after the blood samplings of hour 3 and hour 8. One such “low niacin meal” consisted of three rice wafers, one apple and one carrot with a total of 2.3 mg of niacin equivalents.
Statistical analyses were carried out using SPSS version 22.0 (SPSS, Chicago, Ill., USA), and graphic data analysis was performed with GraphPad Prism version 5.0 (GraphPad Software, San Diego, Calif., USA). […]

Row | Structure (SMILES) | abundance-based (Bray curtis) bacterial communities distance compared with a healthy normal reference group (intestinal microbiota) | Bacteroidetes (read counts) (intestinal microbiota; before, during and at the end of the FIM study) | Blood pressure, systolic [1] | Glucose [1] | accumulation (serum levels at 72 hours vs baseline levels) [2] | pH value [3] | NAM serum levels ([4]; 900 mg free or enc. NAM, hour 1, subjects 1-3) | NAM serum levels ([4]; 900 mg free or enc. NAM, hour 2, subjects 1-3) | NAM serum levels ([4]; 900 mg free or enc. NAM, hour 3, subjects 1-3) | NAM serum levels ([4]; 900 mg free or enc. NAM, hour 4, subjects 1-3) | time of peak of NAM serum levels after ingestion ([4]; 900 mg, three healthy volunteers) | concentration at 1 h ([4]; human, serum, oral, 900 mg, 900 mg free or enc. NAM, hour 1, subjects 1-3) | concentration at 2 h ([4]; human, serum, oral, 900 mg, 900 mg free or enc. NAM, hour 2, subjects 1-3) | concentration at 3 h ([4]; human, serum, oral, 900 mg, 900 mg free or enc. NAM, hour 3, subjects 1-3) | concentration at 4 h ([4]; human, serum, oral, 900 mg, 900 mg free or enc. NAM, hour 4, subjects 1-3) | AUC (clinical)
1 | O=C(O)c1cccnc1 [free NA, nicotinic acid] | significant change | moderate, but overall significant increase | 120 mm Hg and 130 mm Hg (2×) and 115 mm Hg and 105 mm Hg | 77 mg/dL and 92 mg/dL and 89 mg/dL and 85 mg/dL and 94 mg/dL | No NA or NAM accumulation was observed |  |  |  |  |  |  |  |  |  |  | 
2 | NC(=O)c1cccnc1 [free NAM, nicotinamide] | trend |  | 120 mm Hg (4×) and 105 mm Hg | 87 mg/dL and 80 mg/dL and 92 mg/dL and 84 mg/dL and 83 mg/dL | No NA or NAM accumulation was observed | 6.61 | 19,900 μg/L and 20,100 μg/L | 15,900 μg/L and 17,200 μg/L | 9,740 μg/L and 13,100 μg/L | 7,390 μg/L and 10,300 μg/L | 1 h | 11600 ng/mL | 10300 ng/mL | 8380 ng/mL | 5920 ng/mL | 78300 ng·h/mL
